From US20030211075A1 (priority 2001, published 2003)

Assays:
[1] = test system: 2F2B mouse endothelial cells; assay: Binding of tTF to endothelial cells (FACS, cell bound coagulation assay); format: cell-based
Protocol: Cells were washed and coagulation factor mix (as described above) was added. S2765 substrate was added and Factor Xa generation was measured as described above.
2F2B cells were stimulated with LPS (20 μg/ml) or TNFα (500 U/ml) for 4 h at 37° C. […] Fluorescent cells were detected on a flow cytometer (Becton Dickinson, San Jose, Calif.).

[2] = Clinical signs of toxicity and histology of normal organs in treated tumor-bearing mice; format: in vivo, mouse; conditions: for Symptoms: tTF alone (4 μg i.v.), no endotoxin
Protocol: (§1) Mice were closely observed after treatment for clinical signs of toxicity and clinical status was documented at defined time points (5 minutes, 10 minutes, 15 minutes, 30 minutes. 1 hour. 2 hours, 24 hours, 48 hours, 72 hours). Blood samples were taken from the tail vein at 1 hour, 2 hours and 24 hours to measure TNFα blood levels. Three days after treatment, the mice were anesthetized, blood samples were taken from the vena cava for coagulation tests, and an autopsy was performed to document any changes in gross pathology. Tumors, lymph node metastases and the major normal organs (heart, lung, brain, liver, kidney, colon, spleen, pancreas) were harvested and prepared for histological analysis.
Tissue samples harvested at the time of autopsy were fixed in 3% NBF (normal buffered formalin) and embedded in paraffin wax. Tissue blocs were cut, dewaxed and stained with hematoxilin and eosin (H&E). Tissue sections were analyzed on a light microscope by two independent investigators and histological findings were documented. Tumor sections with necrotic areas were scanned with a GS-700 imaging densitometer (Biorad, Hercules, Calif.) and areas of necrosis were calculated as % of total section area. Statistical Analysis was performed using SPSS software (SPSS Science Software, Erkrath, Germany) applying the Mann-Whitney-U-test for ungrouped data.

TNFα = TNFα serum levels in treated animals; format: in vivo, mouse; conditions: tTF containing no endotoxin (n=6), 1, 2 and 24 hours
Protocol: as §1
TNFα levels in serum were determined using the Quantikine-M kit (R&D Systems, Minneapolis, Minn.) according to the manufacturer's instructions.

[3] = test system: thrombin-antithrombin-complexes (TAT), antithrombin III (ATIII); assay: Coagulation parameters in plasma three days after treatment; format: in vivo, mouse; conditions: tTF alone; plasma three days after i.v. treatment

tTF: extracellular domain of the mature Tissue Factor protein (amino acid 1-219), recombinant truncated human Tissue Factor
binding to endothelial cells expressing tissue factor [1]: no binding
histology of normal organs ([2]; light microscopy, three days after treatment): No histological abnormalities were seen
Symptoms ([2]; listed as TTF): None
Symptoms ([2]; listed as endotoxin-free tTF): no clinical signs of toxicity
TNFα serum level (TNFα): could not be detected
TAT [3]: 25.4 ng/mL
